Measurements from patent US9907859B2 (priority 2010, dated 2018).
Converted amounts (≈) assume the structure as drawn. Like-named read-outs stand apart in the source and are kept apart here.

Columns and labels:
[1] = in vivo; conditions: for AUC(0-t) / Cmax / half-life / clearance: iv
[2] = in vivo; conditions: mouse, po
[3] = in vivo; conditions: both, cynomolgus monkey, po; for AUC(0-inf): AUCINF—obs
[4] = rabbit, in vivo
[5] = physchem; conditions: 70 °C, aqueous with cosolvent or surfactant or cyclodextrin
[6] = cynomolgus monkey, in vivo
[7] = test system: VV; conditions: in vivo; cited from earlier work
[8] = mouse, in vivo; for AUC0-24: po, 300 mg/kg
[9] = in vivo; conditions: New Zealand White, rabbit, po, 100 mg/kg

## O=C(NN1C(=O)C2C3C=CC(C4CC34)C2C1=O)c1ccc(C(F)(F)F)cc1 (stereo not drawn) [ST-246, 4-trifluoromethyl-N-(3,3a,4,4a,5,5a,6,6a-octahydro-1,3-dioxo-4,6-ethenocycloprop[f]isoindol-2(1H)-yl)-benzamide]
[1]; female, BALB/c (oral), CD-1 (IV), mouse, 30 mg/kg
  bioavailability: ~41%
[1]; female, BALB/c, mouse, 2.3 mg/kg, AUC0-24
  AUC(0-t): 87.8 µg·h/mL
[1]; female, BALB/c, mouse, 2.3 mg/kg, Cmax
  Cmax: 22.4 µg/mL
[1]; female, BALB/c, mouse, 3 mg/kg, AUC0-24
  AUC(0-t): 100 µg·h/mL
[1]; female, BALB/c, mouse, 3 mg/kg, Cmax
  Cmax: 78.4 µg/mL
[1]; female, BALB/c, mouse, 7.6 mg/kg, AUC0-24
  AUC(0-t): 218 µg·h/mL
[1]; female, BALB/c, mouse, 7.6 mg/kg, Cmax
  Cmax: 37.6 µg/mL
[1]; female, BALB/c, mouse, 30 mg/kg, AUC0-24
  AUC(0-t): 300 µg·h/mL
[1]; female, BALB/c, mouse, 30 mg/kg, Cmax
  Cmax: 149 µg/mL
[1]; female, BALB/c, mouse, 34.3 mg/kg, AUC0-24
  AUC(0-t): 873 µg·h/mL
[1]; female, BALB/c, mouse, 34.3 mg/kg, Cmax
  Cmax: 162 µg/mL
[1]; female, CD-1, mouse
  half-life: 2.5 to 4.5 h
[1]; female, CD-1, mouse, 3 mg/kg
  clearance: 0.717 mL/min/kg
  half-life: 4.5 h
[1]; female, CD-1, mouse, 3 mg/kg, AUC0-24
  AUC(0-t): 67.9 µg·h/mL
[1]; female, CD-1, mouse, 3 mg/kg, AUC0-24 hr
  AUC(0-t): 68 µg·h/mL
[1]; female, CD-1, mouse, 3 mg/kg, Cmax
  Cmax: 16.7 µg/mL
[1]; female, CD-1, mouse, 10 mg/kg
  clearance: 0.417 mL/min/kg
  half-life: 2.8 h
[1]; female, CD-1, mouse, 10 mg/kg, AUC0-24
  AUC(0-t): 408 µg·h/mL
[1]; female, CD-1, mouse, 10 mg/kg, AUC0-24 hr
  AUC(0-t): 408 µg·h/mL
[1]; female, CD-1, mouse, 10 mg/kg, Cmax
  Cmax: 63.5 µg/mL
[1]; female, CD-1, mouse, 30 mg/kg
  clearance: 0.7 mL/min/kg
  half-life: 2.5 h
[1]; female, CD-1, mouse, 30 mg/kg, AUC0-24
  AUC(0-t): 709 µg·h/mL
[1]; female, CD-1, mouse, 30 mg/kg, AUC0-24 hr
  AUC(0-t): 709 µg·h/mL
[1]; female, CD-1, mouse, 30 mg/kg, Cmax
  Cmax: 127 µg/mL
[1]; female, CD-1, mouse, 75 mg/kg
  clearance: 1 mL/min/kg
  half-life: 2.8 h
[1]; female, CD-1, mouse, 75 mg/kg, AUC0-24
  AUC(0-t): 1250 µg·h/mL
[1]; female, CD-1, mouse, 75 mg/kg, AUC0-24 hr
  AUC(0-t): 1250 µg·h/mL
[1]; female, CD-1, mouse, 75 mg/kg, Cmax
  Cmax: 238 µg/mL
[1]; female, CD-1, mouse, 75 mg/kg, mean Cmax
  Cmax: 238 µg/mL
[1]; female, mouse, 30 mg/kg, Cmax
  Cmax: 120 µg/mL
[1]; male, BALB/c, mouse, 2.3 mg/kg, AUC0-24
  AUC(0-t): 73.3 µg·h/mL
[1]; male, BALB/c, mouse, 2.3 mg/kg, Cmax
  Cmax: 20 µg/mL
[1]; male, BALB/c, mouse, 7.6 mg/kg, AUC0-24
  AUC(0-t): 170 µg·h/mL
[1]; male, BALB/c, mouse, 7.6 mg/kg, Cmax
  Cmax: 53.8 µg/mL
[1]; male, BALB/c, mouse, 34.3 mg/kg, AUC0-24
  AUC(0-t): 798 µg·h/mL
[1]; male, BALB/c, mouse, 34.3 mg/kg, Cmax
  Cmax: 191 µg/mL
[2]; female, BALB/c
  half-life: 2.2 to 4.5 h
[2]; female, BALB/c, 30 mg/kg
  CL/F: 1.7 mL/min/kg
  half-life: 2.4 h
  Cmax: 37.5 µg/mL
[2]; female, BALB/c, 30 mg/kg, AUC0-24
  AUC(0-t): 292 µg·h/mL
[2]; female, BALB/c, 30 mg/kg, AUC0-24 hr
  AUC(0-t): 292 µg·h/mL
[2]; female, BALB/c, 100 mg/kg
  CL/F: 3.65 mL/min/kg
  half-life: 2.2 h
  Cmax: 43.8 µg/mL
[2]; female, BALB/c, 100 mg/kg, AUC0-24 hr
  AUC(0-t): 456 µg·h/mL
[2]; female, BALB/c, 300 mg/kg
  CL/F: 7.3 mL/min/kg
  half-life: 4.1 h
  Cmax: 64 µg/mL
[2]; female, BALB/c, 300 mg/kg, AUC0-24 hr
  AUC(0-t): 669 µg·h/mL
[2]; female, BALB/c, 1000 mg/kg
  CL/F: 18.9 mL/min/kg
  half-life: 4.5 h
  Cmax: 66 µg/mL
[2]; female, BALB/c, 1000 mg/kg, AUC0-24 hr
  AUC(0-t): 852 µg·h/mL
[2]; female, 100 mg/kg, AUC0-24
  AUC(0-t): 456 µg·h/mL
[2]; female, 300 mg/kg, AUC0-24
  AUC(0-t): 669 µg·h/mL
[2]; female, 300 mg/kg
  Cmax: 64 µg/mL
[2]; female, 500 mg/kg, AUC0-24
  AUC(0-t): 515 µg·h/mL
[2]; female, 500 mg/kg
  Cmax: 56.6 µg/mL
[2]; female, 600 mg/kg, AUC0-24
  AUC(0-t): 854 µg·h/mL
[2]; female, 600 mg/kg
  Cmax: 95.3 µg/mL
[2]; female, 1000 mg/kg
  Cmax: 66.3 µg/mL
[2]; female, 2000 mg/kg, AUC0-24
  AUC(0-t): 607 µg·h/mL
[2]; female, 2000 mg/kg
  Cmax: 69.9 µg/mL
[2]; male, BALB/c, 30 mg/kg, AUC0-24
  AUC(0-t): 241 µg·h/mL
[2]; male, BALB/c, 30 mg/kg
  Cmax: 30.4 µg/mL
[2]; male, BALB/c, 100 mg/kg
  Cmax: 38.4 µg/mL
[2]; male, 100 mg/kg, AUC0-24
  AUC(0-t): 343 µg·h/mL
[2]; male, 300 mg/kg, AUC0-24
  AUC(0-t): 484 µg·h/mL
[2]; male, 300 mg/kg
  Cmax: 48.5 µg/mL
[2]; male, 500 mg/kg, AUC0-24
  AUC(0-t): 413 µg·h/mL
[2]; male, 500 mg/kg
  Cmax: 36.6 µg/mL
[2]; male, 600 mg/kg, AUC0-24
  AUC(0-t): 765 µg·h/mL
[2]; male, 600 mg/kg
  Cmax: 82.8 µg/mL
[2]; male, 1000 mg/kg
  Cmax: 61.1 µg/mL
[2]; male, 2000 mg/kg, AUC0-24
  AUC(0-t): 508 µg·h/mL
[2]; male, 2000 mg/kg
  Cmax: 50.9 µg/mL
[3]; 0.3 mg/kg
  CL/F: 15.3 mL/min/kg
  Tmax: 2.5 h
  half-life: 4 ± 1.3 h
  AUC(0-inf): 0.38 ± 0.149 µg·h/mL
  Cmax: 0.0538 ± 0.0275 µg/mL
[3]; 3 mg/kg
  AUC(0-t): 3.86 ± 0.862 µg·h/mL
  CL/F: 11.2 mL/min/kg
  Tmax: 3.3 h
  half-life: 9.9 ± 6 h
  AUC(0-inf): 4.53 ± 0.49 µg·h/mL
  Cmax: 0.496 ± 0.145 µg/mL
[3]; 10 mg/kg
  AUC(0-t): 10.3 ± 3.06 µg·h/mL
  CL/F: 15.3 mL/min/kg
  Tmax: 3.8 h
  half-life: 7 ± 0.9 h
  AUC(0-inf): 11.8 ± 3.67 µg·h/mL
  Cmax: 1.08 ± 0.279 µg/mL
[3]; 20 mg/kg
  AUC(0-t): 13.4 ± 8.02 µg·h/mL
  CL/F: 20.1 mL/min/kg
  Tmax: 3.2 h
  half-life: 7.2 ± 2.3 h
  AUC(0-inf): 15.5 ± 9.15 µg·h/mL
  Cmax: 1.48 ± 0.864 µg/mL
[3]; 30 mg/kg
  AUC(0-t): 20.5 ± 8.05 µg·h/mL
  CL/F: 16.5 mL/min/kg
  Tmax: 3.6 h
  half-life: 17.7 ± 13.8 h
  AUC(0-inf): 31.9 ± 7.36 µg·h/mL
  Cmax: 1.99 ± 0.873 µg/mL
[4]; both, New Zealand White, iv, 60 mg/kg
  time to full recovery: 30 to 60 min
[4]
  tolerability: well-tolerated
[4]; 3 mg/kg
  tolerability: well-tolerated
[4]; iv, 1 mg/kg
  tolerability: well tolerated
[4]; iv, 60 mg/kg
  clinical signs: lethargy, labored breathing and narcosis
[5]
  solubility: 21.2 mg/mL (≈ 56.4 mM)
[6]; both, 30 mg/kg
  onset of tremors after end of infusion: ≤ 13 min
  resolution of tremors after end of infusion: approximately 2 hours
[6]
  clinical signs: no clinical signs were observed
[6]; 20 mg/kg
  clinical signs: Tremors were not observed
[7]
  preventing or reducing mortality: highly effective in preventing or reducing mortality
  toxicity in animal model: nontoxic
[8]; female, BALB/c
  increase of apparent clearance after oral dosing: approximately 10 fold
[8]; female
  AUC0-24: 688.685 µg·h/mL
[8]; male
  AUC0-24: 669.961 µg·h/mL
[9]; both
  AUC(0-t): 19.8 µg·h/mL
  CL/F: 120 mL/min/kg
  Cmax: 2.86 µg/mL
  half-life: 3.7 h
[9]; female
  AUC(0-t): 8.18 µg·h/mL
  Cmax: 1.23 µg/mL
  half-life: 1.3 h
[9]; male
  AUC(0-t): 26.4 µg·h/mL
  Cmax: 4.48 µg/mL
  half-life: 6 h
